Reference: patent US20120053235A1, “Dihydromyricetin as an IKK-beta inhibitor used for treatment of arthritis, cancer and autoimmune conditions, and other diseases or disorders” (HONG KONG BAPTIST UNIVERSITY, priority 2010, published 2012)

How the values were obtained:
[1] = tested on: collagen II induced arthritis in female Wistar rats; assay: Collagen II induced arthritis (CIA); assay type: in vivo
Procedure: Collagen II solution (collagen, 2 mg/ml in 0.05M acetic acid, Chondrex 20022, Redmond, Wash., USA) was emulsified with an equal volume of incomplete Freund's adjuvant (IFA, Chondrex 7002, Redmond, Wash., USA) at 4° C. using a high-speed homogenizer. In the experiment of CIA, DMY was encapsulated with HP-CD (1:8.48) and then dissolved in the normal saline with drug concentrations of 50 and 100 mg/kg body weight. Rats were intradermally injected at the base of the tail with 100 μl collagen/incomplete Freund's adjuvant (IFA) emulsion containing […] of collagen II by the use of a glass syringe equipped with a locking hub and a 27-G needle. On day 7 after the primary immunization, all the rats were given a booster injection of 100 μg of collagen II in IFA. On the day after the onset of arthritis (day 13), the CIA rats were exposed to a daily intraperitoneal administration of DMY (50 and 100 mg/kg) until day 30 of the study. DEX (0.1 mg/kg, one per day), MTX (3.75 mg/kg, twice per week), and indomethacin (1 mg/kg, one per day) were used as positive reference drugs. The rats were inspected daily from the onset of arthritis characterized by edema and/or erythema in the paws. The incidence and severity of arthritis were evaluated using an arthritic scoring system, and bi-hind paw volumes and body weight were measured every 2 days started on the day when the arthritic signs were firstly visible (day 13). In the arthritic scoring system, lesions (i.e., the clinical arthritic signs) of the four paws of each rat were graded from 0 to 4 according to the extent of both edema and erythema of the periarticular tissues. As such, 16 was the potential maximum of the combined arthritic scores per animal. The hind paw volumes were measured using a plethysmometer chamber (7140 UGO. Basile, Comerio, Italy) and expressed as the mean volume change of both hind paws of the rats. Body weight of the rats was monitored with a 0.1 g precision balance (Sartorius AG, Goettingen, Germany). On day 30, all rats were sacrificed with liver, spleen and thymus being collected and weighted. The organ index for a specific organ is equal to the ratio of the weight of that organ to a body weight of 100 g.

[2] = tested on: ear edema induced by dinitrofluorobenzene in male ICR mice; assay: Delay-type hypersensitivity test (DNFB-induced ear edema); assay type: in vivo; details: DTHT mice, topical treatment
Procedure: Male mice were sensitized through topical application of 20 μl of 0.5% (v/v) dinitrofluorobenzene (DNFB) in acetone onto the shaved abdomen on days 1 and 2. Challenge was then preformed in day 6 by applying DNFB (20 μl, 0.5%, v/v) on the left inner and outer ear surfaces of mice. DMY (at doses of 0.5, 1, 2 mg/ear) and DEX (0.025 mg/ear, Sigma-Aldrich) dissolved in acetone was topically applied (20 μl) to the ears at 2nd, 24th, 48th, and 72nd hour after the challenge. The mice were sacrificed by cervical dislocation, and then the same area of the ears was punched from each animal. Spleens and thymuses were isolated and weighted. The ear edema was calculated according to the differences between the weight of the right and left ears. The control group was treated only with DNFB.

| organ indexes of spleen and/or thymus ([1]; rat, in vivo) | spleen weight ([2]; FIGS. 9B and C) | thymus weight ([2]; FIGS. 9B and C) | organ indexes of spleen and/or thymus ([1]; CIA rats, day 30, FIG. 10C) | SMILES | body weight [2] | body weight ([1]; CIA rats, FIG. 100D) |
| --- | --- | --- | --- | --- | --- | --- |
| significant reduction | decreased | decreased |  | C[C@@H]1C[C@H]2[C@@H]3CCC4=CC(=O)C=C[C@]4(C)[C@@]3(F)[C@@H](O)C[C@]2(C)[C@@]1(O)C(=O)CO [DEX, reference compound] | greatly reduced |  |
| significant reduction |  |  |  | CN(Cc1cnc2nc(N)nc(N)c2n1)c1ccc(C(=O)N[C@@H](CCC(=O)O)C(=O)O)cc1 [MTX, reference compound] |  |  |
|  |  |  | significant reduction | COc1ccc2c(c1)c(CC(=O)O)c(C)n2C(=O)c1ccc(Cl)cc1 [indomethacin, reference compound] |  | significant reduction in body weight |
